According to PMC9019100, “Development of NanoLuc-targeting protein degraders and a universal reporter system to benchmark tag-targeted degradation platforms” (Nature Communications, 2022):
Several values for one entry are separate records, joined by “and”; a condition that tells them apart may be missing. Equal values may be shown once. Read-outs that look alike come from different tables or passages of the source.

Legend:
[1] = tested on: MLKL^−/− HT29 cells expressing untagged MLKL; format: cell-based
[2] = target: T1, Halo-EGFP-NanoLuc-FKBP^F36V (H-E-N-F) fusion protein (UniProt P0A3G2+P62942+Q9GV45, A155T/A167V/A172T/A224E/A31E/A60N/A81I/C128F/C176G/D78G/E160K/E257K/F37V/F95D/H272N/I117V/K175M/K195N/K70R/L47V/L54V/L88M/L99Q/M102K/N193R/N227D/P142E/P291S/Q151K/Q38R/Q45L/S2A/S58T/T264A/V71I/Y165I/Y273L/Y87F); format: cell-based; details: +dox; for Blank corrected (470-80) luminescence: single well replicates; for Blank corrected Raw Data (470-80): PROTAC 500nM, replicate wells
Target sequence in this assay (Q9GV45 other isoform, or with tags, fused parts or gaps with the stated changes): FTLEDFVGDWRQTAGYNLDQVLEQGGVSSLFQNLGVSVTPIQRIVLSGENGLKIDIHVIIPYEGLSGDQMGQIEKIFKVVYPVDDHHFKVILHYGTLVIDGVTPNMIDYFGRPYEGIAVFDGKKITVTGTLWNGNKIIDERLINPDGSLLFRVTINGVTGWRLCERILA
Target sequence in this assay (P0A3G2 other isoform, or with tags, fused parts or gaps with the stated changes): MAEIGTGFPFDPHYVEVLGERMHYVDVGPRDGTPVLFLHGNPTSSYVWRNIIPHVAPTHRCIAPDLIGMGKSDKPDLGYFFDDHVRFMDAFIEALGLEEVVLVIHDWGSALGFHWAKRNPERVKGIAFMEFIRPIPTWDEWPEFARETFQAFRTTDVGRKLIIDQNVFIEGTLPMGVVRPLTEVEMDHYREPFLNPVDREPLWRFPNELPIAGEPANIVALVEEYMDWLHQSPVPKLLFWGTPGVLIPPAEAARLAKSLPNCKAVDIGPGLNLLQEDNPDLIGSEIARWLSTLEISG
Target sequence in this assay (P62942 whole entry F37V, the tested form may be a part): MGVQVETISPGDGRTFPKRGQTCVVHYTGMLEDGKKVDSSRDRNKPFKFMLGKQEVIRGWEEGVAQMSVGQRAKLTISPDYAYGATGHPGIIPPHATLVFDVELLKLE

[3] = tested on: wild-type HT29 cells; test: Necroptosis assay (PI exclusion, flow cytometry), wild-type HT29 cells, TNF+SM+IDN; format: cell-based, human; details: sheet S5H
Procedure: To simulate necroptosis, cells were seeded into 96-well plates ±40 ng/mL doxycycline, to induce construct expression, and treated with 100 ng/mL FLAG-TNF (recombinant human, in-house), 500 nM compound A Smac mimetic (kindly gifted by TetraLogics Pharmaceuticals) and 5 μM IDN-6556 (Cayman) or 10 uM Z-VAD-fmk (Selleckchem) overnight (16–24 h). Degrader compounds or a DMSO vehicle control were added for 5 h, as stated in the Fig. legends. Cells were detached using Trypsin-EDTA (Merck) and resuspended in cell supernatants containing 10 μg/mL propidium iodide (PI). PI exclusion analysis was performed using an LSR II flow cytometer (Becton Dickinson, NJ) with 10,000 single-cell events per sample. Flow cytometry data were analysed using WEASEL version 2.7 software (Frank Battye).
Supplementary Figure 5. […]
NC4. Data are representative of N = 3 independent experiments. f-h. HT29 cells were stimulated with DMSO (control) or 500 nM of degrader for 5 hours before the addition of TNF (100 ng/mL) + Smac mimetic (compound A; 500 nM-1 µM) + caspase inhibitor; Emricasan (IDN) (5 µM), for 24 hours. Cell death was assessed by flow cytometric analysis of PI exclusion. N = 3 replicates (symbols) is shown, EB; mean ± SD. Data are representative of N = 3 independent experiments. i. Representative flow cytometry gating strategy. Source data are provided as a Source Data file.

[4] = target: T1, Halo-EGFP-NanoLuc-FKBP^F36V (H-E-N-F) fusion protein; format: cell-based; parameters: expressed in transfected cells; host or cells: immortalized mouse dermal fibroblasts (iMDFs), ubiquitin promoter, constitutive; details: 500 nM; 24 or 48 h after removal
Target sequence in this assay (P0A3G2 other isoform, or with tags, fused parts or gaps with the stated changes): as the sequence (P0A3G2 other isoform, or with tags, fused parts or gaps with the stated changes) above
Target sequence in this assay (Q9GV45 other isoform, or with tags, fused parts or gaps with the stated changes): as the sequence (Q9GV45 other isoform, or with tags, fused parts or gaps with the stated changes) above
Target sequence in this assay (P62942 whole entry F37V, the tested form may be a part): as the sequence (P62942 whole entry F37V, the tested form may be a part) above

[5] = target: T2, Fibrillarin-Halo (Rhodococcus rhodochrous, UniProt P0A3G2, A155T/A167V/A172T/A224E/C128F/C176G/D78G/E160K/E257K/H272N/K175M/K195N/L47V/L88M/N227D/P291S/S2A/S58T/T264A/Y273L/Y87F); format: cell-based; details: 500 nM, 10 h
T2 construct: endogenous in cells; host or cells: 293T, CRISPR/PITCh knock-in at the FBL locus

[6] = tested on: MLKL^−/− HT29 cells expressing MLKL-Halo; format: cell-based
Procedure: Cell death was assessed by flow cytometric analysis of PI exclusion. […] Cell death was assessed by flow cytometric analysis of PI exclusion. […] Cell death was assessed by flow cytometric analysis of PI exclusion. e N = 4, f N = 3 independent experiments (symbols), EB represent mean ± SD. g Western from MLKL^−/−CASP8^−/− HT29 cells stably expressing the doxycycline-inducible C-terminal fusion protein, MLKL-NanoLuc (MLKL-NLuc) and constitutively expressing the C-terminal fusion protein caspase-8-FKBP^F36V. […] Cell death was assessed using an IncuCyte and Cytotox-Red uptake. N = 3 independent experiments, one representative experiment shown, EB represent mean ± SD.

T2 sequence (P0A3G2 other isoform, or with tags, fused parts or gaps with the stated changes): as the sequence (P0A3G2 other isoform, or with tags, fused parts or gaps with the stated changes) above

Structure (SMILES): Cc1ncsc1-c1ccc(CNC(=O)[C@@H]2C[C@@H](O)CN2C(=O)[C@@H](NC(=O)C2(C#N)CC2)C(C)(C)C)c(OCCOCCOCCOCCCCCCCl)c1 [HV2]
- TNF+911+zVAD (PI exclusion) [1]: 6.7 and 3.6 and 5.5
- TNF+911+zVAD (PI exclusion) ([1]; MLKL-/- + MLKL, TNF+911+zVAD, degrader 3.9nM, replicate columns): 7.3 and 3.4 and 6.6
- TNF+911+zVAD (PI exclusion) ([1]; MLKL-/- + MLKL, TNF+911+zVAD, degrader 7.8nM, replicate columns): 7.3 and 4.5 and 5.7
- TNF+911+zVAD (PI exclusion) ([1]; MLKL-/- + MLKL, TNF+911+zVAD, degrader 31.25nM, replicate columns): 9.7 and 4.3 and 5.6
- TNF+911+zVAD (PI exclusion) ([1]; MLKL-/- + MLKL, TNF+911+zVAD, degrader 62.5nM, replicate columns): 7.8 and 3.5 and 5.8
- TNF+911+zVAD (PI exclusion) ([1]; MLKL-/- + MLKL, TNF+911+zVAD, degrader 250nM, replicate columns): 6.5 and 3.9 and 5.8
- TNF+911+zVAD (PI exclusion) ([1]; MLKL-/- + MLKL, TNF+911+zVAD, degrader 500nM, replicate columns): 8.6 and 4.3 and 7.2
- TNF+911+zVAD (PI exclusion) ([1]; MLKL-/- + MLKL, TNF+911+zVAD, degrader 1000nM, replicate columns): 8.3 and 4 and 5.4
- Blank corrected (470-80) luminescence ([2]; 3.9nM PROTAC): 79470 and 68951 and 78183 and 76420
- Blank corrected (470-80) luminescence ([2]; 7.8nM PROTAC): 72797 and 64329 and 67516 and 60174
- Blank corrected (470-80) luminescence ([2]; 31.25nM PROTAC): 46917 and 44939 and 48832 and 45085
- Blank corrected (470-80) luminescence ([2]; 62.5nM PROTAC): 40512 and 37700 and 38124 and 40329
- Blank corrected (470-80) luminescence ([2]; 250nM PROTAC): 30717 and 30890 and 31914 and 28801
- Blank corrected (470-80) luminescence ([2]; 500nM PROTAC, 5h): 69924 and 50626 and 73472 and 59650
- Blank corrected (470-80) luminescence ([2]; 500nM PROTAC, 8h): 70698 and 62420 and 68286 and 57616
- Blank corrected (470-80) luminescence ([2]; 500nM PROTAC, 24h): 56615 and 44142 and 53902 and 55861
- Blank corrected (470-80) luminescence ([2]; 500nM PROTAC): 27860 and 28299 and 29718 and 30521
- Blank corrected (470-80) luminescence ([2]; 1uM PROTAC): 27861 and 28948 and 28638 and 31530
- Blank corrected Raw Data (470-80) ([2]; DMSO (control) co-treatment): 30990 and 24165 and 26494 and 23014
- Blank corrected Raw Data (470-80) ([2]; co-treatment with MG132 (10uM)): 55749 and 70265 and 64908 and 78527
- viable cells (PI exclusion) ([3]; TNF+SM+IDN): 9.6 and 6.1 and 6.3
- viable cells (PI exclusion) ([3]; Untreated (no death stimulus)): 75.8 and 75.3 and 68.5
- time up to which degradation was maintained, degrader removed at 5 h [4]: depletion not maintained
- Dmax (densitometry) [5]: ~ 94.8%
- TNF+911+zVAD (PI exclusion) [6]: 75.3 and 62.1 and 72
- concentration required to maintain cell survival [6]: 125 nM
- TNF+911+zVAD (PI exclusion) ([6]; MLKL-/- + MLKL HALO, TNF+911+zVAD, degrader 3.9nM, replicate columns): 6.8 and 4 and 7.3
- TNF+911+zVAD (PI exclusion) ([6]; MLKL-/- + MLKL HALO, TNF+911+zVAD, degrader 7.8nM, replicate columns): 6.9 and 4.5 and 9.3
- TNF+911+zVAD (PI exclusion) ([6]; MLKL-/- + MLKL HALO, TNF+911+zVAD, degrader 31.25nM, replicate columns): 33 and 22.8 and 23.9
- TNF+911+zVAD (PI exclusion) ([6]; MLKL-/- + MLKL HALO, TNF+911+zVAD, degrader 62.5nM, replicate columns): 77 and 48.6 and 62.6
- TNF+911+zVAD (PI exclusion) ([6]; MLKL-/- + MLKL HALO, TNF+911+zVAD, degrader 250nM, replicate columns): 88.6 and 71.9 and 68.6
- TNF+911+zVAD (PI exclusion) ([6]; MLKL-/- + MLKL HALO, TNF+911+zVAD, degrader 500nM, replicate columns): 85.7 and 70.1 and 67.1
- TNF+911+zVAD (PI exclusion) ([6]; MLKL-/- + MLKL HALO, TNF+911+zVAD, degrader 1000nM, replicate columns): 77.8 and 71.5 and 66.8
